We go through one compound from patent US20180117644A1, “METHOD FOR WASHING SEVOFLURANE STORAGE CONTAINER AND METHOD FOR STORING SEVOFLURANE” (CENTRAL GLASS COMPANY, LIMITED, priority 2016, published 2018).

Molecules are shown by their SMILES. Read-outs that look alike come from different tables or passages of the source.

Series [1] is described as follows: Degradation of sevoflurane (severe testing) with alumina, gas chromatographic composition. To be noted: sevoflurane with moisture 6 ppm, alumina 50 mg, 50° C., 64 hours, after third water washing. The series is classed as physicochemical. The method, then:
In Example 1, sevoflurane was treated under conditions more stringent than actual sevoflurane storage conditions so that “polyether” was forcibly generated. Specifically, according to the disclosure of Patent Literature 5, the water content of sevoflurane was adjusted to be lower than that of sevoflurane obtained as a final product (6 ppm). Further, sevoflurane was heated to 50° C. under the presence of oxidized aluminium (alumina) serving as Lewis acid (i.e., a substance that is considered to catalyze sevoflurane degradation in Patent Literature 5). As a result, a portion of sevoflurane was degraded into polyether, resulting in generation of “sevoflurane containing polyether” in the system. It was attempted to wash the obtained “sevoflurane containing polyether” with water.
Sevoflurane (used as a pharmaceutical product) (100 cm^3) was placed in a erlenmeyer flask and cooled to 10° C. in a refrigerator. Then, synthetic zeolite was introduced into the erlenmeyer flask so that the weight ratio of synthetic zeolite:sevoflurane became 1:4. Next, the erlenmeyer flask was allowed to stand still in a refrigerator at 10° C. for 2 hours and 30 minutes for drying of sevoflurane (reduction of water content).
Alumina (50 mg) was placed in a 50-cm^3 brown bottle with a narrow mouth. Sevoflurane having a moisture content of 6 ppm prepared in (1-1) (20 cm^3, 29.9 g) was added thereto.
Next, the cap of the brown bottle with a narrow mouth was closed and the bottle was heated in a thermostatic bath at 50° C. for 64 hours. After heating for 64 hours, the bottle was cooled in a refrigerator (10° C.) for 1 hour.
As the sevoflurane obtained as a result of severe testing in (1-2) contained hydrogen fluoride (HF), water washing (back extraction of HF into an aqueous phase) was conducted for the ease of handling. Specifically, the sevoflurane subjected to severe testing and water (15 cm^3) were introduced into a separatory funnel made of tetrafluoroethylene, stirred for 1 minute, and allowed to stand still for 1 minute, followed by liquid separation. Then, the aqueous phase was collected and pH was checked using a pH test paper.
Meanwhile, after the third water washing, the gas chromatographic composition of the organic phase was detected as follows: sevoflurane: about 87%; polyether 1: 8.4% (84000 ppm); and polyether 2: 4.0% (40000 ppm). In addition, 190 ppm of hexafluoroisopropyl alcohol (HFIP) was detected.

Series [2] in a line: Moisture content of liquid sevoflurane stored with dry nitrogen in autoclave (Karl Fischer). The series is classed as physicochemical. The method, then:
A 1-dm^3 autoclave (SUS304) used as a sevoflurane storage container was filled with dry nitrogen. Liquid sevoflurane (i.e., a sevoflurane product containing 400 ppm of water) (30 g) was added thereto. The autoclave was hermetically closed and stored at room temperature for 1 month. Then, moisture content was measured using a Karl Fischer moisture meter. […] The liquid sevoflurane was stored for another month in the autoclave in the same manner. Then, the moisture content was measured again.

The conditions of series [3]: cited from earlier work.
The conditions of series [4]: as disclosed in Patent Literature 5; cited from earlier work.

Turning to `FCOC(C(F)(F)F)C(F)(F)F` [sevoflurane, Fluoromethyl-1,1,1,3,3,3-hexafluoroisopropyl ether], in series [1], the “gas chromatographic composition of the organic phase: polyether 1” value is on record as 8.4%. In addition, the “gas chromatographic composition of the organic phase: polyether 2” value in series [1] is listed as 4.0%. Also, the “gas chromatographic composition of the organic phase: sevoflurane” value in series [1] is reported as “about 87%”. In addition, the “hexafluoroisopropyl alcohol (HFIP) detected in the organic phase” value in series [1] was 190 ppm. The moisture content in series [2] (product containing 400 ppm of water, 30 g in 1-dm^3 autoclave (SUS304) filled with dry nitrogen, room temperature, 1 month) came out at 360 ppm; in series [2] (same storage, another month (2 months in total)), 350 ppm. In addition, the vapor pressure entry is listed as “about 0.026 MPa” in series [3] (25° C.), “about 0.041 MPa” in series [3] (35° C.) and “about 0.061 MPa” in series [3] (45° C.). In series [4], the “upper limit of the amount of water that can be mixed with sevoflurane” value is “about 1400 ppm”.
